≈ marks a conversion by molar mass, not a printed value.
What was measured:
Format in all cases: functional
Staphylococcus aureus [1] = assay: In vitro activity against MSSA (A20241) by standard broth dilution method
Staphylococcus aureus [2] = assay: In vitro activity against MSSA (A15090) by standard broth dilution method
Staphylococcus aureus [3] = assay: In vitro activity against MRSA (A27223; homogeneous strain) by standard broth dilution method
Staphylococcus aureus [4] = assay: In vitro activity against MRSA (A27621; homogeneous strain) by standard broth dilution method
Staphylococcus aureus [5] = assay: In vitro activity against MRSA (A27217; heterogeneous strain) by standard broth dilution method
Staphylococcus aureus [6] = assay: In vitro activity against MRSA (A27226; homogeneous strain) by standard broth dilution method
[7] = In vivo inhibitory activity of compound against staphylococcus aureus; […]; conditions: read-out: PD50
[8] = In vivo inhibitory activity of compound against staphylococcus aureus; conditions: read-out: PD50
[9] = Staphylococcus aureus, read-out: MIC

SMILES | MIC (Staphylococcus aureus [1]; [9]) | MIC (Staphylococcus aureus [2]; [9]) | MIC (Staphylococcus aureus [3]; [9]) | MIC (Staphylococcus aureus [4]; [9]) | MIC (Staphylococcus aureus [5]; [9]) | MIC (Staphylococcus aureus [6]; [9]) | ED50 [7] | MIC (Staphylococcus aureus [1]) | MIC (Staphylococcus aureus [2]) | MIC (Staphylococcus aureus [3]) | MIC (Staphylococcus aureus [4]) | MIC (Staphylococcus aureus [5]) | ED50 [8] | MIC (Staphylococcus aureus [6])
O=C(CSc1cc(Cl)ccc1Cl)N[C@@H]1C(=O)N2C(C(=O)[O-])=C(C[N+]34CCC(CC3)C(O)C4)CS[C@H]12 (some centres not stated) | 0.25 mg/L (≈ 0.448 µM) | 0.25 mg/L (≈ 0.448 µM) | 1 mg/L (≈ 1.79 µM) | 1 mg/L (≈ 1.79 µM) | 1 mg/L (≈ 1.79 µM) | 1 mg/L (≈ 1.79 µM) | – | – | – | – | – | – | – | –
O=C(CSc1cc(Cl)ccc1Cl)N[C@@H]1C(=O)N2C(C(=O)[O-])=C(C[N+]34CN5CN(CN(C5)C3)C4)CS[C@H]12 | 0.125 mg/L (≈ 0.219 µM) | 0.125 mg/L (≈ 0.219 µM) | 8 mg/L (≈ 14 µM) | 8 mg/L (≈ 14 µM) | 4 mg/L (≈ 7 µM) | 8 mg/L (≈ 14 µM) | – | – | – | – | – | – | – | –
O=C(CSc1cc(Cl)ccc1Cl)N[C@@H]1C(=O)N2C(C(=O)[O-])=C(C[n+]3ccc4c(O)cccc4c3)CS[C@H]12 | 1 mg/L (≈ 1.73 µM) | 1 mg/L (≈ 1.73 µM) | 1 mg/L (≈ 1.73 µM) | 1 mg/L (≈ 1.73 µM) | 1 mg/L (≈ 1.73 µM) | 1 mg/L (≈ 1.73 µM) | – | – | – | – | – | – | – | –
O=C(CSc1cc(Cl)ccc1Cl)N[C@@H]1C(=O)N2C(C(=O)[O-])=C(C[n+]3ccc4ccccc4c3)CS[C@H]12 | 0.5 mg/L (≈ 0.892 µM) | 0.5 mg/L (≈ 0.892 µM) | 2 mg/L (≈ 3.57 µM) | 2 mg/L (≈ 3.57 µM) | 2 mg/L (≈ 3.57 µM) | 2 mg/L (≈ 3.57 µM) | – | – | – | – | – | – | – | –
C[N+]1(CC2=C(C(=O)[O-])N3C(=O)[C@@H](NC(=O)CSc4cc(Cl)ccc4Cl)[C@H]3SC2)C2CCCC1CC2 (some centres not stated) | 0.25 mg/L (≈ 0.449 µM) | 0.25 mg/L (≈ 0.449 µM) | 2 mg/L (≈ 3.59 µM) | 2 mg/L (≈ 3.59 µM) | 2 mg/L (≈ 3.59 µM) | 2 mg/L (≈ 3.59 µM) | – | – | – | – | – | – | – | –
O=C(CSc1cc(Cl)ccc1Cl)N[C@@H]1C(=O)N2C(C(=O)[O-])=C(C[n+]3ccc4c(c3)CCCC4)CS[C@H]12 | 0.5 mg/L (≈ 0.886 µM) | 0.5 mg/L (≈ 0.886 µM) | 4 mg/L (≈ 7.09 µM) | 4 mg/L (≈ 7.09 µM) | 2 mg/L (≈ 3.54 µM) | 2 mg/L (≈ 3.54 µM) | – | – | – | – | – | – | – | –
C[N+]1(CC2=C(C(=O)[O-])N3C(=O)[C@@H](NC(=O)CSc4cc(Cl)ccc4Cl)[C@H]3SC2)C2CCC1CC(=O)C2 (some centres not stated) | 0.5 mg/L (≈ 0.876 µM) | 0.5 mg/L (≈ 0.876 µM) | 4 mg/L (≈ 7.01 µM) | 4 mg/L (≈ 7.01 µM) | 2 mg/L (≈ 3.51 µM) | 4 mg/L (≈ 7.01 µM) | – | – | – | – | – | – | – | –
NCCC(=O)NC1C[N+]2(CC3=C(C(=O)[O-])N4C(=O)[C@@H](NC(=O)CSc5cc(Cl)ccc5Cl)[C@H]4SC3)CCC1CC2 (some centres not stated) | 1 mg/L (≈ 1.59 µM) | 1 mg/L (≈ 1.59 µM) | 4 mg/L (≈ 6.36 µM) | 4 mg/L (≈ 6.36 µM) | 2 mg/L (≈ 3.18 µM) | 4 mg/L (≈ 6.36 µM) | – | – | – | – | – | – | – | –
C[N+]1(CC2=C(C(=O)[O-])N3C(=O)[C@@H](NC(=O)CSc4cc(Cl)ccc4Cl)[C@H]3SC2)[C@@H]2CC[C@H]1C[C@@H](O)C2 (stereo in doubt; 6r) | 0.25 mg/L (≈ 0.437 µM) | 0.25 mg/L (≈ 0.437 µM) | 2 mg/L (≈ 3.49 µM) | 2 mg/L (≈ 3.49 µM) | 1 mg/L (≈ 1.75 µM) | 2 mg/L (≈ 3.49 µM) | 0.8 mg/kg | – | – | – | – | – | – | –
C[N+]1(CC2=C(C(=O)[O-])N3C(=O)[C@@H](NC(=O)CSc4cc(Cl)ccc4Cl)[C@H]3SC2)[C@@H]2CC[C@H]1C[C@@H](O)C2 (stereo in doubt; 6s) | – | – | – | – | – | – | – | 0.125 mg/L (≈ 0.218 µM) | 0.125 mg/L (≈ 0.218 µM) | 4 mg/L (≈ 6.99 µM) | 2 mg/L (≈ 3.49 µM) | 1 mg/L (≈ 1.75 µM) | 9.5 mg/kg | 4 mg/L (≈ 6.99 µM)
